Results as given in US20260199426A1, “CYCLIC LIPOPEPTIDE ANTIBIOTIC COMPOUNDS FOR USE IN THE TREATMENT OF PROTEIN AGGREGATION DISEASE” (DEUTSCHES ZENTRUM FÜR NEURODEGENERATIVE ERKRANKUNGEN E. V., priority 2022, published 2026).
*1 amine or outer side, *2 acyl side, *3 side chain or, on linkers, in order; H or OH if unused. Where a SMILES comes first, the peptide text is derived from it. Bridges are numbered along the chain shown (N, C = ends). [ ]: non-standard residue; d: D form. The star is where a group is joined. ξ: configuration not given here. X2 = O=C(C(N[*:1])c1ccc(OC2OC(CO)C(O)C(O)C2OC2OC(CO)C(O)C(O)C2O)cc1)[*:2]; Octa(2Z,4E)dienoyl(7-Me) = CC(C)C/C=C/C=C\C(=O)*; ξPhg(3-Cl-4-OH) = NC(C(=O)O)c1ccc(O)c(Cl)c1; X1 = NC(=O)C(O[*:3])C(N[*:1])C(=O)[*:2]; Hpg = N[CH](C(=O)O)c1ccc(O)cc1; Orn = NCCC[CH](N)C(=O)O

Key:
[1] = system: NM region of the Sup35 prion protein (NM-GFP) in HEK cells; assay type: cell-based, human
[2] = system: NM region of the Sup35 prion protein (HA-epitope tagged NM) in N2a cells; assay type: cell-based; details: 500 nM NM fibrils, 24 h
[3] = system: 22 L scrapie prion infection of fibroblast cell clone L929 15.9 (PrP^Sc); assay type: cell-based
[4] = biological target: N-terminally acetylated alpha-synuclein (Asyn) (Homo sapiens, UniProt P37840); assay: Seeded α-synuclein aggregation assay (ThT fluorescence, TEM); assay type: biochemical
Procedure: (§1) (A, B) Thioflavin-T (ThT) fluorescence curves of N-terminally acetylated alpha-synuclein (Asyn) in the absence (cross) and presence of a 3-fold excess (white circles) of compound. […] Quantitative analysis of Asyn aggregation kinetics was performed by nonlinear regression with sigmoidal fitting to determine the midpoint value (Tm) of the fluorescence curve as well as the fluorescence span. Unpaired two-tailed t-test was performed to test the null hypothesis (p≤0.0332(*), p≤0.002(**), p≤0.0002 (***), p≤0.0001 (****)). […] (C) TEM imaging analysis of the compound/Asyn mixtures. Scale bars correspond to 200 nm.
as §1, with “ThT” for “Thioflavin-T (ThT)”, “circles or triangles)” for “circles)”
(A) ThT fluorescence curves of N-terminally acetylated alpha-synuclein (Asyn) in the absence (cross) and presence of a 3-fold excess (white circles) of compound. […] Quantitative analysis of Asyn aggregation kinetics was performed by nonlinear regression with sigmoidal fitting to determine the midpoint value (Tm) of the fluorescence curve as well as the fluorescence span.
Asyn protein stock solutions were prepared in 50 mM HEPES at pH 7.4 with 100 mM NaCl. Stocks of compounds were prepared in the same buffer (500 μM) or as 10 mM compound in DMSO. […] The microplate was likewise subjected to the incubation and fluorescence measurement program used in in vitro assay 1. After about 2-4 days of incubation, ThT fluorescence emission reached the maximal value and the Asyn fibril-containing mixture was collected as “fibril seed” mixture for subsequent Asyn aggregation experiments.

[5] = biological target: T1, amylin (human islet amyloid polypeptide or hIAPP) (Homo sapiens, UniProt P10997); assay: Amylin aggregation assay (ThT); assay type: biochemical; details: 5 μM hIAPP monomers, various doses, 37° C.
T1 construct: 5 μM amylin (human islet amyloid polypeptide or hIAPP) monomers
T1 sequence (P10997 34-70 limits assumed): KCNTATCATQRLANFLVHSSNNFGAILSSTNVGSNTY

[6] = system: tau neurofibrillary tangles; assay: Formation of tau neurofibrillary tangles in mice; assay type: in vivo, mouse; details: in feed from 3-4 weeks of age, approximately 9 months
[7] = system: spread of tau aggregates between nerve cells in PS19 mice; assay: Spreading of tau aggregates after intracerebral injection of tau fibrils in PS19 mice; assay type: in vivo, mouse; details: in food from two months of age; tau fibril injection four weeks after start
[8] = system: Tau aggregation in HEK biosensor cells (TauRD^LM-GFP)
TGFBI peptide = TGFBI peptide aggregation assay (ThT, TEM); details: compound/TGFBI mixture
2N4R Tau [9] = biological target: T2, 2N4R Tau (Homo sapiens, UniProt P10636); assay: Tau pelleting assay (SDS-PAGE of soluble fraction); details: mole ratios 1:3 and 1:5
T2 sequence (P10636 1-441 isoform P10636-8): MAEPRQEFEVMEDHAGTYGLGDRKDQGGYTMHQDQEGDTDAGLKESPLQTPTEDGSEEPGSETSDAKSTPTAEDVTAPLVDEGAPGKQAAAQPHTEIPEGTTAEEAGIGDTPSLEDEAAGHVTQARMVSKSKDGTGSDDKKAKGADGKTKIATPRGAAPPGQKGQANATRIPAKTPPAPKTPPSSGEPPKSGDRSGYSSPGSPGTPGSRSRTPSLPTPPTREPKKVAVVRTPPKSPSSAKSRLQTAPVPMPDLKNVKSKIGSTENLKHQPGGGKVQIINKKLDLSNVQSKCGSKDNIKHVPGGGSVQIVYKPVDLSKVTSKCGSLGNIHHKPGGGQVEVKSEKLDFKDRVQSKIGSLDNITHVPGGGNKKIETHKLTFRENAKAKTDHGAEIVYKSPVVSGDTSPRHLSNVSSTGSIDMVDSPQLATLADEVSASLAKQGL

monomeric Tau (2N4R) = monomeric Tau (2N4R) (Homo sapiens, UniProt P10636)
Sequence of monomeric Tau (2N4R) (P10636 1-441 isoform P10636-8): as above

[10] = biological target: pre-formed 2N4R Tau fibrils (Homo sapiens, UniProt P10636); assay: Tau fibril dissolution assay (pre-formed fibrils, ThT span, TEM); details: mole ratios 1:0.3 and 1:1
Sequence of pre-formed 2N4R Tau fibrils (P10636 1-441 isoform P10636-8): as above

[11] = system: Tau-induced degeneration of Drosophila eyes (GMR-Gal4/WT Tau); assay: Drosophila neurodegeneration model (Tau-induced eye degeneration); details: oral in food from larvae stage to adult stage; 15, 30, and 44 μM
2N4R Tau [12] = biological target: T2, 2N4R Tau; assay: Seeded Tau aggregation assay (ThT fluorescence, TEM of the fibrils formed); details: Tau:Ramoplanin A2 mole ratios 1:3 and 1:5; lower Tm = faster aggregation
monomeric 2N4R Tau = monomeric 2N4R Tau (Homo sapiens, UniProt P10636); assay: 1D 1H-NMR titration of Ramoplanin A2 with unlabeled 2N4R Tau (binding epitopes); details: 200 μM Ramoplanin A2 : 30 μM Tau, 37° C.
Sequence of monomeric 2N4R Tau (P10636 1-441 isoform P10636-8): as above

## CC(C)C/C=C/C=C\C(=O)NC(CC(N)=O)C(=O)NC1C(=O)NC(c2ccc(O)cc2)C(=O)NC(CCCN)C(=O)NC(C(C)O)C(=O)NC(c2ccc(O)cc2)C(=O)NC(c2ccc(O)cc2)C(=O)NC(C(C)O)C(=O)NC(Cc2ccccc2)C(=O)NC(CCCN)C(=O)NC(c2ccc(OC3OC(CO)C(O)C(O)C3OC3OC(CO)C(O)C(O)C3O)cc2)C(=O)NC(C(C)O)C(=O)NC(c2ccc(O)cc2)C(=O)NCC(=O)NC(CC(C)C)C(=O)NC(C)C(=O)NC(c2ccc(O)c(Cl)c2)C(=O)OC1C(N)=O (stereo not shown) [Ramoplanin A2] ({Octa(2Z,4E)dienoyl(7-Me)}-N[X1][Hpg][Orn]T[Hpg][Hpg]TF[Orn][X2]T[Hpg]GLA[ξPhg(3-Cl-4-OH)]; ester 2-C; configuration not given here)
[1]
  percent of cells with aggregates of the prion protein: reduced with increasing concentration
[2]
  percent of cells with aggregates of the prion protein: reduced with increasing concentration
[3]
  pathogenic prion protein PrP^Sc (proteinase K resistant, Western blot): reduction
[3]; 3 μM, 9 d
  total PrP (Western blot): reduction
[3]; 3 μM, 9 d, 1% 22 L scrapie brain homogenate
  prion infection in cellular model: prevents prion infection in cellular model
[4]; 3-fold excess of compound, 25 μM Asyn monomers, 1% (v/v) fibril seeds, 37° C.
  in vitro aggregation of alpha-synuclein (ThT fluorescence): inhibit the in vitro aggregation
[4]; compound/Asyn mixtures
  Asyn fibril morphology (TEM): shorter fibrils
[5]
  in vitro aggregation of amylin (final ThT fluorescence, t=50 h): inhibit the in vitro aggregation of amylin
[6]
  formation of tau neurofibrillary tangles: inhibits the formation of tau neurofibrillary tangles
[7]
  spread of tau aggregates between nerve cells and formation of new tau fibrils: hinders the spread of tau aggregates between nerve cells and the formation of new tau fibrils
[8]; induced by Tau^P301L fibrils, 0.25 μM to 40 μM, 48 hours, with or without lipofectamine
  Tau aggregate formation: decreased aggregate formation
[8]; induced by brain homogenate of PS19 mice, 0.25 μM to 26.5 μM, 24 hours, lipofectamine
  aggregation of Tau: inhibits the aggregation of Tau in HEK biosensor cells
[8]; induced by cell lysate containing Tau aggregates, 0.25 μM to 40 μM, 22 h, lipofectamine
  inhibition of seeded Tau aggregation: showed inhibition of seeded Tau aggregation
[8]; induced by cell lysate, 0.25 μM to 40 μM, 22 h, lipofectamine
  inhibition of seeded Tau aggregation, comparison among the tested compounds: strongest dose-dependent inhibition of seeded Tau aggregation
TGFBI peptide
  TGFBI fibril morphology (TEM): shorter fibrils
2N4R Tau [9]
  amount of soluble Tau (SDS-PAGE): increased
Monomeric Tau (2N4R); 18 μM 15N Tau, mole ratios 1:0.3 to 1:30
  binding to monomeric Tau (CSPs above ~0.0025 ppm with signal broadening I/I0<1): binding of Ramoplanin A2 to specific regions/residues in the monomeric form of Tau
Monomeric Tau (2N4R); 10-fold excess of Ramoplanin A2
  conformational state of Tau (chemical shift dispersion along 1H dimension): Tau remains disordered
[10]
  dissolution of Tau fibrils: not dissolved
[11]
  percent degeneration of Drosophila eyes: lowers the percent degeneration of Drosophila eyes
2N4R Tau [12]
  midpoint values (Tm) of the fluorescence curves: accelerates Tau fibrillization
Monomeric 2N4R Tau
  involvement of the peptide backbone of Ramoplanin A2 in binding (proton CSPs): involved in binding to monomeric Tau
